From patent US20130053350A1, “PPAR-SPARING THIAZOLIDINEDIONES AND COMBINATIONS FOR THE TREATMENT OF NEURODEGENERATIVE DISEASES” (Metabolic Solutions Development Company, LLC, priority 2009, published 2013)

What was measured:
[1] = system: PGC-1α; assay: Synergy with norepinephrine on expression of PGC-1α mRNA in precursor BAT cells (quantitative PCR); assay type: cell-based; settings: 3 μM compound for seven days, then 1 μM norepinephrine for 2 hours, vs control without compound
Method: Another example of the ability of augmented signaling between cyclic nucleotides and compounds of Formula I is shown by the effect on expression of PGC-1α, a known regulator of mitochondrial biogenesis. Increased numbers of mitochondria are predictive of utility for the reduction of body weight.
Precursor BAT cells were isolated as described above and treated with or without 3 μM compounds: 1.] Compound X: 5-(4-(2-(5-ethylpyridin-2-yl)-2-oxoethoxy)benzyl)-1,3-thiazolidine-2,4-dione; 2.] Compound Y: 5-(4-(2R)-2-(5-ethylpyridin-2-yl)-2-hydroxyethoxyy)benzyl)-1,3-thiazolidine-2,4-dione; or 3.] Compound Z: 5-(4-(2-(3-methoxyphenyl)-2-oxoethoxy)benzyl)-1,3-thiazolidine-2,4-dione for seven days followed by treatment with 1 μM norepinephrine for 2 hours. Total RNA was isolated from the cells and the RNA message (mRNA) for PGC-1α was measured by quantitative polymerase chain reactions.

[2] = system: 5XFAD mice; assay: Thioflavin S stained plaques in the hippocampus of 5XFAD mice; assay type: in vivo
Method: (§1) 5XFAD mice harbor 5 familial mutations (3 in the amyloid precursor protein; 2 in presenilin 1) and develop robust plaque pathology as early as 6 weeks. These mice were treated beginning at 2 months of age for a period of 4 weeks with control chow or chow containing Compound X to deliver 390 mg/kg for 4 weeks.
Referring to FIG. 7, thioflavin S stained plaques were counted in the hippocampus of the 5XFAD mice. […] Note that the plaques having less than 100 micron size were excluded from the graph, and those amounted to about 70% of all the plaques in both Control and Compound X treated groups.

[3] = system: astrocyte marker GFAP; assay: GFAP astrocyte marker staining of sections from treated mice; assay type: in vivo; settings: sections from control and treated mice
Method: as §1

[4] = system: PPARγ; settings: dosed to full effect for insulin sensitizing actions in vivo; cited from earlier work
[5] = chow delivering 390 mg/kg for 4 weeks, hippocampus, vs control group

CCc1ccc(C(=O)COc2ccc(CC3SC(=O)NC3=O)cc2)nc1 (centres unmarked) [Compound X, 5-(4-(2-(5-ethylpyridin-2-yl)-2-oxoethoxy)benzyl)-1,3-thiazolidine-2,4-dione]
PGC-1α message (mRNA) in the presence of norepinephrine [1]: increase
number of plaques [2, 5]: less than the control group
size of plaques [2, 5]: less than the control group
plaques having less than 100 micron size, share of all the plaques ([2]; same in Control and treated groups, excluded from the graph): about 70%

CCc1ccc([C@@H](O)COc2ccc(CC3SC(=O)NC3=O)cc2)nc1 (some centres unmarked) [Compound Y]
PGC-1α message (mRNA) in the presence of norepinephrine [1]: increase

COc1cccc(C(=O)COc2ccc(CC3SC(=O)NC3=O)cc2)c1 (centres unmarked) [Compound Z, 5-(4-(2-(3-methoxyphenyl)-2-oxoethoxy)benzyl)-1,3-thiazolidine-2,4-dione]
PGC-1α message (mRNA) in the presence of norepinephrine [1]: increase

CCc1ccc(C(=O)COc2ccc(CC3SC(=O)NC3=O)cc2)nc1 (centres unmarked) [Mitoglitazone]
average number of GFAP positively stained cells per section, P value control vs treated [3]: 0.012

CN(CCOc1ccc(CC2SC(=O)NC2=O)cc1)c1ccccn1 (centres unmarked) [rosiglitazone]
a P2 expression in the liver [4]: increase
